From DBAASP come the findings set out here.

Assay in all cases: ≥ marks a high value that may be exact or a test limit, other limits are often not marked, values filed in µg/mL are converted to µM
Test [1] concerns Candida albicans ATCC 10231.
For test [2], the system named is Enterococcus faecalis PCM 2673.
The subject of test [3] is Pseudomonas aeruginosa ATCC 9027.
Test [4] concerns Escherichia coli ATCC 25922.
For test [5], the system named is Staphylococcus aureus ATCC 25923.
Test [6] relates to Staphylococcus epidermidis.
The test system of test [7] is Pseudomonas aeruginosa PAO1.
The next test relates to Escherichia coli BL21.
For test [8], the system named is Staphylococcus aureus ATCC 6538P.
The subject of test [9] is Staphylococcus aureus ATCC BAA-41.
For test [10], the system named is Pseudomonas aeruginosa Ps4.
Test [11] relates to Staphylococcus aureus SH1000.
For test [12], the system named is Cryptococcus neoformans ATCC 208821.
For test [13], the system named is Klebsiella pneumoniae ATCC 700603.
The test system of test [14] is Candida albicans ATCC 90028.
The subject of test [15] is Acinetobacter baumannii ATCC 19606.
For test [16], the system named is Pseudomonas aeruginosa ATCC 27853.
For test [17], the system named is Staphylococcus aureus ATCC 43300.
Test [18] relates to Burkholderia cepacia ATCC 25416.
Test [19] relates to Pseudomonas aeruginosa Z61.
Test [20] concerns Pseudomonas aeruginosa H744.
The test system of test [21] is Pseudomonas aeruginosa H374.
For another test, the system named is Escherichia coli UB1005.
The test system of test [22] is Pseudomonas aeruginosa K799.
Test [23] relates to Salmonella enterica subsp. enterica serovar Typhimurium ATCC 14028s.
Test [24] has as its system Pseudomonas aeruginosa H547.

The structures appear in SMILES notation. Converted amounts (≈) assume the structure as drawn.

Broadly, the MIC is the smallest concentration in the dilution series that meets the test's criterion for growth inhibition. Read a high MIC as a need for much substance. On to `CC[C@H](C)[C@H](NC(=O)[C@H](CCCCN)NC(=O)[C@H](CCCCN)NC(=O)[C@@H](NC(=O)[C@@H](NC(=O)[C@H](CC(=O)O)NC(=O)[C@H](C)NC(=O)[C@H](CC(C)C)NC(=O)CN)[C@@H](C)CC)[C@@H](C)CC)C(=O)N[C@@H](C)C(=O)N[C@@H](CCC(=O)O)C(=O)N[C@@H](CO)C(=O)N[C@@H](Cc1ccccc1)C(N)=O` [GLADIIKKIAESF], for which the MIC is 91.1 µM (≈ 128 µg/mL) in test [1]; ≥ 182 µM in [2]; 365 µM (≈ 512 µg/mL) in test [3]; 91.1 µM (≈ 128 µg/mL) in test [4]; 365 µM (≈ 512 µg/mL) in [5].

In the case of `CC[C@H](C)[C@H](NC(=O)[C@H](CCCCN)NC(=O)[C@H](CCCCN)NC(=O)[C@H](Cc1ccccc1)NC(=O)[C@H](CCCCN)NC(=O)[C@H](CCCCN)NC(=O)[C@H](Cc1c[nH]c2ccccc12)NC(=O)[C@@H](N)CCCCN)C(=O)NCC(=O)N[C@@H](CCCCN)C(=O)N[C@H](C(=O)N[C@@H](CC(C)C)C(=O)N[C@@H](CCCCN)C(=O)N[C@H](C(=O)N[C@@H](CC(C)C)C(=O)O)C(C)C)C(C)C` [KWKKFKKIGKVLKVL], the MIC in test [6] amounted to 0.25 µM (≈ 0.461 µg/mL); in [7], 0.707 µM (≈ 1.3 µg/mL); in the test with Escherichia coli BL21 it was 0.5 µM (≈ 0.922 µg/mL); in test [8], 16 µM (≈ 29.5 µg/mL); in [9] it was 16 µM (≈ 29.5 µg/mL).

On to `CC[C@H](C)[C@H](NC(=O)[C@H](CCCN=C(N)N)NC(=O)[C@@H](NC(=O)[C@H](CC(N)=O)NC(=O)[C@H](CCCN=C(N)N)NC(=O)[C@H](Cc1c[nH]c2ccccc12)NC(=O)[C@@H](N)Cc1ccccc1)[C@@H](C)CC)C(=O)N[C@@H](Cc1c[nH]c2ccccc12)C(=O)N[C@@H](CCCN=C(N)N)C(=O)N[C@@H](CCCN=C(N)N)C(N)=O` [FWRNIRIWRR], for which the MIC in test [10] was ≥ 166 µM.

In the case of `CC(C)C[C@H](NC(=O)[C@H](C)NC(=O)CNC(=O)[C@@H](NC(=O)[C@@H](NC(=O)[C@H](CCCCN)NC(=O)[C@H](CCCCN)NC(=O)[C@@H](NC(=O)[C@H](CC(C)C)NC(=O)[C@H](CCCCN)NC(=O)[C@H](CC(C)C)NC(=O)[C@H](CC(C)C)NC(=O)[C@@H](N)CCCCN)C(C)C)C(C)C)C(C)C)C(=O)NCC(N)=O` [KLLKLVKKVVGALG], the MIC in test [11] is ≥ 33 µM; in [12], 22 µM (≈ 32.2 µg/mL); in test [13], > 22 µM; in test [14] it was 22 µM (≈ 32.2 µg/mL); in [15] it was > 22 µM; in test [4], > 22 µM. Further, the MIC in test [16] and in test [17] was > 22 µM in each case.

Regarding `CC(C)C[C@H](NC(=O)[C@H](C)NC(=O)[C@H](CCCCN)NC(=O)[C@H](CC(C)C)NC(=O)[C@H](CC(C)C)NC(=O)[C@H](CCCCN)NC(=O)[C@H](CCCCN)NC(=O)[C@H](CC(C)C)NC(=O)[C@H](CC(C)C)NC(=O)[C@H](CCCCN)NC(=O)[C@H](CC(C)C)NC(=O)[C@H](CC(C)C)NC(=O)[C@@H](N)CCCCN)C(=O)NCC(N)=O` [KLLKLLKKLLKALG], the MIC in test [11] was ≥ 33 µM; in test [12], 3 µM (≈ 4.73 µg/mL); in test [13] it was > 20 µM; in test [14], 20 µM (≈ 31.6 µg/mL); in [15] it was 1 µM (≈ 1.58 µg/mL); in test [4] it was 20 µM (≈ 31.6 µg/mL). Besides, the MIC is > 20 µM in test [16] and 10 µM (≈ 15.8 µg/mL) in test [17].

Turning to `CC[C@H](C)[C@H](NC(=O)[C@H](CCCCN)NC(=O)[C@H](CCCCN)NC(=O)[C@H](Cc1ccccc1)NC(=O)[C@H](CCCCN)NC(=O)[C@H](CCCCN)NC(=O)[C@H](Cc1c[nH]c2ccccc12)NC(=O)[C@@H](N)CCCCN)C(=O)NCC(=O)N[C@@H](C)C(=O)N[C@H](C(=O)N[C@@H](CC(C)C)C(=O)N[C@@H](CCCCN)C(=O)N[C@H](C(=O)N[C@@H](CC(C)C)C(=O)O)C(C)C)C(C)C` [KWKKFKKIGAVLKVL], the MIC in [6] was 0.5 µM (≈ 0.893 µg/mL); in [7], 0.707 µM (≈ 1.26 µg/mL); in the test with Escherichia coli BL21, 0.354 µM (≈ 0.632 µg/mL); in test [8] it was 16 µM (≈ 28.6 µg/mL); in test [9], 16 µM (≈ 28.6 µg/mL).

As to `CC[C@H](C)[C@H](NC(=O)[C@H](Cc1ccccc1)NC(=O)[C@H](CO)NC(=O)[C@H](CCCCN)NC(=O)[C@H](Cc1c[nH]c2ccccc12)NC(=O)[C@@H](N)CCCCN)C(=O)N[C@@H](CCCCN)C(=O)N[C@@H](CCCCN)C(=O)N[C@@H](CC(C)C)C(=O)N[C@H](C(=O)N[C@@H](CO)C(=O)N[C@@H](C)C(=O)N[C@@H](C)C(=O)N[C@@H](CCCCN)C(=O)N[C@@H](CCCCN)C(=O)N[C@H](C(=O)N[C@H](C(=O)N[C@H](C(=O)N[C@@H](C)C(=O)N[C@@H](C)C(=O)N[C@@H](CCCCN)C(=O)N1CCC[C@H]1C(=O)N[C@@H](CC(C)C)C(=O)N[C@H](C(=O)N[C@@H](CCCCN)C(=O)O)[C@@H](C)O)[C@@H](C)O)[C@@H](C)O)C(C)C)[C@@H](C)O` [KWKSFIKKLTSAAKKVTTAAKPLTK], the MIC is 23.1 µM (≈ 64 µg/mL) in test [18]; 8.65 µM (≈ 24 µg/mL) in [19]; 2.88 µM (≈ 8 µg/mL) in test [20]; 2.88 µM (≈ 8 µg/mL) in [21]; 0.721 µM (≈ 2 µg/mL) with Escherichia coli UB1005; 23.1 µM (≈ 64 µg/mL) in test [22]. Also, the MIC is 15.5 µM (≈ 43 µg/mL) in test [23] and 5.76 µM (≈ 16 µg/mL) in test [24].

With `CC[C@H](C)[C@H](NC(=O)CNC(=O)[C@@H](NC(=O)[C@H](CCCCN)NC(=O)[C@H](CCCCN)NC(=O)[C@H](Cc1ccccc1)NC(=O)[C@H](CC(C)C)NC(=O)[C@H](CCCCN)NC(=O)[C@H](Cc1c[nH]c2ccccc12)NC(=O)[C@@H](N)CCCCN)[C@@H](C)CC)C(=O)NCC(=O)N[C@@H](C)C(=O)N[C@H](C(=O)N[C@@H](CC(C)C)C(=O)N[C@@H](CCCCN)C(=O)N[C@H](C(=O)N[C@@H](CC(C)C)C(=O)N[C@H](C(=O)N[C@H](C(=O)NCC(=O)N[C@@H](CC(C)C)C(=O)N1CCC[C@H]1C(=O)N[C@@H](C)C(=O)N[C@@H](CC(C)C)C(=O)N[C@@H](CCCCN)C(=O)N[C@@H](CC(C)C)C(=O)N[C@H](C(=O)N[C@@H](CC(C)C)C(=O)N[C@@H](CCCCN)C(=O)O)[C@@H](C)O)[C@@H](C)O)[C@@H](C)O)C(C)C)C(C)C` [KWKLFKKIGIGAVLKVLTTGLPALKLTLK], the MIC was found to be 20.1 µM (≈ 64 µg/mL) in test [18]; 0.944 µM (≈ 3 µg/mL) in test [19]; 1.26 µM (≈ 4 µg/mL) in [20]; 0.944 µM (≈ 3 µg/mL) against Escherichia coli UB1005; 1.26 µM (≈ 4 µg/mL) in test [22]; 0.944 µM (≈ 3 µg/mL) in test [23]. In test [24], this molecule gave an MIC of 1.26 µM (≈ 4 µg/mL).

As for `CC[C@H](C)[C@H](NC(=O)[C@H](C)NC(=O)[C@H](CC(=O)O)NC(=O)[C@H](Cc1ccccc1)NC(=O)[C@H](CC(C)C)NC(=O)CN)C(=O)N[C@@H](CCCCN)C(=O)N[C@@H](CCCCN)C(=O)N[C@H](C(=O)N[C@@H](C)C(=O)N[C@@H](CCC(=O)O)C(=O)N[C@@H](CO)C(=O)N[C@@H](Cc1ccccc1)C(N)=O)[C@@H](C)CC` [GLFDAIKKIAESF], the MIC in test [1] is 178 µM (≈ 256 µg/mL); in test [2], ≥ 89 µM; in [3] it was 356 µM (≈ 512 µg/mL); in [4] it was 178 µM (≈ 256 µg/mL); in test [5], > 356 µM.

Regarding `NC(=O)CC[C@H](NC(=O)[C@H](Cc1c[nH]c2ccccc12)NC(=O)[C@@H](N)Cc1ccccc1)C(=O)N[C@@H](CCCN=C(N)N)C(=O)N[C@@H](CC(N)=O)C(=O)N[C@@H](Cc1c[nH]c2ccccc12)C(=O)N[C@@H](CCCN=C(N)N)C(=O)N[C@@H](Cc1c[nH]c2ccccc12)C(=O)N[C@@H](CCCN=C(N)N)C(=O)N[C@@H](CCCN=C(N)N)C(N)=O` [FWQRNWRWRR], the MIC in test [10] was ≥ 157 µM.
